# Test results from patent US8877946B2, “Benzylidene-indolinone compounds and their medical use” (National University of Singapore, priority 2011, dated 2014).
# Test system: HuH7 cells
# Test: MTT antiproliferative (growth inhibition) assay on HuH7 cells
# Assay type: cell-based, human
# Conditions: Homo sapiens, Huh-7, MTT, 72 h incubation, mean and SD of 3 or more independent determinations (Tables 1-8), read-out: IC 50
# Text: MTT was purchased from DUCHEFA Biochemie ([…]). Sunitinib, and sodium dodecyl sulfate, bovine serum albuminwere obtained from Sigma Aldrich (Singapore). Sorafenib was purchase from Ontario Chem. Fetal bovine serum (FBS) was obtained from Invitrogen. Human hepatocellular carcinoma cells (HuH-7 and Hep G2), and human diploid fibroblast strain (IMR 90). HuH7 was obtained as gifts from Dr Ho Han Kiat, Department of Pharmacy, NUS. IMR90 and Hep G2 were purchased from American Type Culture Collection (ATCC). HuH-7 cells were cultured in DMEM (Dulbecco's Modified Eagle Medium, high glucose) with 10% v/v fetal bovine serum (FBS), 100 mg/L penicillin G and 100 mg/L streptomycin. IMR 90 cell were cultured in EMEM (Eagle's Minimum Essential Medium), with 10% v/v FBS and 100 mg/L penicillin G and 100 mg/L streptomycin. The cells were sub-cultured when HuH7 or Hep G2 reached a density of 70-80×10^5 cell/T75 flask, and IMR 90 reached 20×10^5 cell/T75 flask. Cells were used within 2-10 passages for viability experiments.
# The anti-proliferative activity of the test compounds were determined by the MTT assay. An aliquot (200 μL, 3×10^4 cells/mL for HuH7, 3.75×10^4 cells/mL for Hep G2, and 2×10^4 cells/mL for IMR 90) of medium was added to each well of the microtitre plate. […] The existing medium was removed from each well and replaced by fresh medium (200 μL) containing a known concentration of test compound. The final concentration of DMSO in each well was maintained at 0.5% v/v. (1% v/v was also utilized if the compounds were not soluble) The test compounds were incubated with the cells for another 72 h at 37 deg C., 5% CO2. The medium was then removed from the well and replaced with FBS free medium (200 μL) and MTT (50 μL of 2 mg/mL solution in phosphate buffer saline, pH 7.4). The phosphate buffer saline comprises 10 mM of potassium phosphate and 137 mM sodium chloride. After incubation (3 h) at 37 deg C., 5% CO2, the supernatant was removed and a solution of 200 μL DMSO and 25 μL Sorenson buffer (0.1 M glycine, 0.1 M sodium chloride, adjusted to pH 10.5 with 0.1 M sodium hydroxide) was added to dissolve the formazan crystals in each well. Vehicle control were cells grown in 1% v/v DMSO/Medium for 72 h, 37 deg C., 5% CO2 while blank controls were wells that contained only 200 μL DMSO and 25 μL Sorenson buffer. Absorbances were measured at 570 nm on a microplate reader (Tecan, Infinite 200). The viability of cells at a given concentration of test compound was determined from the expression:
# [formula] where abs_compound=absorbance of wells containing cells and test compound, abs_vehicle (Not the same as above. Change to abs_vehicle)=absorbance of vehicle control and abs_blank=absorbance of blank control.
# Each concentration of test compound was evaluated at least 3 times on separate occasions, and two different stock solution were used. The IC50 value (concentration that inhibited 50% of cell growth) was determined from the sigmoidal curve obtained by plotting percentage viability versus logarithmic concentration of test compound using GraphPad Prism 5 (San Diego, USA).
row,SMILES,IC50 [µM]
1,"O=C1Nc2ccc(F)c(F)c2/C1=C/c1ccc(C(F)(F)F)cc1 [Compound 6-7, (Z)-4,5-Difluoro-3-(4-trifluoromethyl-benzylidene)-1,3-dihydro-indol-2-one]",> 30
2,"O=C1Nc2ccc(Cl)cc2C1=Nc1cccc(C(F)(F)F)c1 [Compound 8-6, (E/Z) 5-Chloro-3-(3-trifluoromethyl-phenylimino)-1,3-dihydro-indol-2-one]",20.3 ± 3.53
3,"O=C1Nc2cc(F)c(F)cc2/C1=C\c1ccccc1C(F)(F)F [Compound 7-5, (E)-5,6-Difluoro-3-(2-trifluoromethyl-benzylidene)-1,3-dihydro-indol-2-one]",> 30
4,"COc1ccc2c(c1)NC(=O)/C2=C/c1ccccc1F [Compound 5-2, (E)-3-(2-Fluoro-benzylidene)-6-methoxy-1,3-dihydro-indol-2-one]",0.49 ± 0.05
5,"O=C1Nc2cc(F)ccc2/C1=C\c1ccc(C(F)(F)F)cc1 [Compound 3-7, (E)-6-Fluoro-3-(4-trifluoromethyl-benzylidene)-1,3-dihydro-indol-2-one]",8.42 ± 0.27
6,"COc1ccccc1/C=C1/C(=O)Nc2cc(Cl)ccc21 [Compound 1-6, (E)-6-Chloro-3-(2-methoxy-benzylidene)-1,3-dihydro-indol-2-one]",> 30
7,"O=C1Nc2ccc(F)cc2/C1=C\c1cccc(C(F)(F)F)c1 [Compound 4-10, (E)-5-Fluoro-3-(3-trifluoromethyl-benzylidene)-1,3-dihydro-indol-2-one, reference compound]",4.04 ± 0.54
8,"O=C1Nc2cc(Cl)ccc2/C1=C\c1ccccc1 [Compound 1-1, (E)-3-Benzylidene-6-chloro-1,3-dihydro-indol-2-one]",17.5 ± 3.54
9,"O=C1Nc2ccc(F)c(F)c2/C1=C/c1cccc(F)c1 [Compound 6-3, (Z)-4,5-Difluoro-3-(3-fluoro-benzylidene)-1,3-dihydro-indol-2-one]",15.9 ± 1.14
10,"O=C1Nc2ccc(F)cc2/C1=C\c1cccc(OC(F)(F)F)c1 [Compound 4-13, (E)-5-Fluoro-3-(3-trifluoromethoxy-benzylidene)-1,3-dihydro-indol-2-one]",23.1 ± 4.75
11,"O=C1Nc2ccc(F)c(F)c2C1=Cc1ccccc1C(F)(F)F (mixture of isomers) [Compound 6-5, (E/Z)-4,5-Difluoro-3-(2-trifluoromethyl-benzylidene)-1,3-dihydro-indol-2-one]",> 30
12,"O=C1Nc2ccc(Cl)cc2/C1=C\c1ccccc1 [Compound 2-1, (E)-3-Benzylidene-5-chloro-1,3-dihydro-indol-2-one]",21.3 ± 2.22
13,"O=C1Nc2cc(Cl)ccc2/C1=C\c1cccc(OC(F)(F)F)c1 [Compound 1-14, (E)-6-Chloro-3-(3-trifluoromethoxyl-benzylidene)-1,3-dihydro-indol-2-one]",5.06 ± 0.74
14,"O=C1Nc2cc(F)ccc2/C1=C\c1cccc(C(F)(F)F)c1 [Compound 3-6, (E)-6-Fluoro-3-(3-trifluoromethyl-benzylidene)-1,3-dihydro-indol-2-one, reference compound]",1.41 ± 0.13
15,"CNS(=O)(=O)c1cccc(/C=C2/C(=O)Nc3cc(OC)ccc32)c1 [Compound 5-8, (E)-3-(6-Methoxy-2-oxo-1,2-dihydro-indol-3-ylidenemethyl)-N-methyl-benzenesulphonamide]",0.17 ± 0.02
16,"O=C1Nc2ccc(F)cc2/C1=C\c1ccc(F)c(F)c1 [Compound 4-12, (E)-3-(3,4-Difluoro-benzylidene)-5-fluoro-1,3-dihydro-indol-2-one]",15.3 ± 0.18
17,"CNS(=O)(=O)c1cccc(/C=C2/C(=O)Nc3ccc(Cl)cc32)c1 [Compound 2-14, (E)-3-(5-Chloro-2-oxo-1,2-dihydro-indol-3-ylidenemethyl)-N-methyl-benzenesulphonamide]",3.13 ± 0.07
18,"O=C1Nc2ccc(Cl)cc2/C1=C\c1ccccc1F [Compound 2-2, (E)-5-Chloro-3-(2-fluoro-benzylidene)-1,3-dihydro-indol-2-one]",> 30
19,CNS(=O)(=O)c1cccc(C=C2C(=O)Nc3cc(F)c(F)cc32)c1 [Compound 7-10],2.76 ± 0.16

row,SMILES,IC50 [µM]
1,"O=C1Nc2ccc(F)cc2/C1=C\c1ccc(F)cc1 [Compound 4-4, (E)-5-Fluoro-3-(4-fluoro-benzylidene)-1,3-dihydro-indol-2-one]",13.2 ± 0.42
2,"O=C1Nc2cc(F)ccc2/C1=C\c1cccc(F)c1 [Compound 3-3, (E)-6-Fluoro-3-(3-fluoro-benzylidene)-1,3-dihydro-indol-2-one]",2.41 ± 1.07
3,"COc1ccc2c(c1)NC(=O)/C2=C/c1cccc(C(F)(F)F)c1 [Compound 5-6, (E)-6-Methoxy-3-(3-trifluoromethyl-benzylidene)-1,3-dihydro-indol-2-one, reference compound]",1.2 ± 0.05
4,"O=C1Nc2ccc(F)cc2/C1=C\c1ccc(C(F)(F)F)cc1 [Compound 4-11, (E)-5-Fluoro-3-(4-trifluoromethylbenzylidene)-1,3-dihydro-indol-2-one]",9.31 ± 1.04
5,"COc1cccc(C=C2C(=O)Nc3ccc(Cl)cc32)c1 [Compound 2-5, (E)-5-Chloro-3-(3-methoxybenzylidene)-dihydro-indol-2-one]",> 30
6,"O=C1Nc2ccc(Cl)cc2/C1=C\c1ccccc1C(F)(F)F [Compound 2-6, (E)-5-Chloro-3-(2-trifluoromethylbenzylidene)-1,3-dihydro-indol-2-one]",> 30
7,"COc1ccc2c(c1)NC(=O)/C2=C/c1ccccc1 [Compound 5-1, (E)-3-Benzylidene-6-methoxy-1,3-dihydro-indol-2-one]",0.94 ± 0.19
8,"COc1cccc(/C=C2/C(=O)Nc3cc(Cl)ccc32)c1 [Compound 1-7, (E)-6-Chloro-3-(3-methoxy-benzylidene)-1,3-dihydro-indol-2-one]",12.2 ± 0.64
9,"CNS(=O)(=O)c1cccc(/C=C2\C(=O)Nc3ccc(F)c(F)c32)c1 [Compound 6-10, (Z)-3-(4,5-Difluoro-2-oxo-1,2-dihydro-indol-3-ylidenemethyl)-N-methyl-benzenesulphonamide]",15.8 ± 3.37
10,"O=C1Nc2cc(Cl)ccc2C1=Cc1ccc(F)c(F)c1 [Compound 1-12, (E)-6-Chloro-3-(3,4-difluoro-benzylidene) 1,3-dihydro-indolin-2-one]",16.7 ± 3.4
11,"CN1C(=O)/C(=C/c2cccc(C(F)(F)F)c2)c2ccc(Cl)cc21 [Compound 8-5, (E)-6-Chloro-1-methyl-3-(3-trifluoromethyl-benzylidene)-1,3-dihydro-indol-2-one]",1.14 ± 0.19
12,"O=C1Nc2cc(F)ccc2/C1=C\c1cccc(OC(F)(F)F)c1 [Compound 3-8, (E)-6-Fluoro-3-(3-trifluoromethoxyl-benzylidene)-1,3-dihydro-indol-2-one]",7.48 ± 0.2
13,"O=C1Nc2cc(Cl)ccc2/C1=C\c1cccc(F)c1 [Compound 1-3, (E)-6-Chloro-3-(3-fluoro-benzylidene)-1,3-dihydro-indol-2-one]",10 ± 0.87
14,"O=C1Nc2cc(Cl)ccc2/C1=C\c1ccc(F)cc1 [Compound 1-4, (E)-6-Chloro-3-(4-fluoro-benzylidene)-1,3-dihydro-indol-2-one]",12.9 ± 0.95
15,"Cc1ccccc1/C=C1/C(=O)Nc2ccc(F)cc21 [Compound 4-5, (E)-5-Fluoro-3-(2-methyl-benzylidene)-1,3-dihydro-indol-2-one]",11.7 ± 1.1
16,"COc1ccc2c(c1)NC(=O)/C2=C/c1ccc(C(F)(F)F)cc1 [Compound 5-7, (E)-6-Methoxy-3-(4-trifluoromethyl-benzylidene)-1,3-dihydro-indol-2-one]",> 30
17,"O=C1Nc2ccc(F)c(F)c2/C1=C/c1ccccc1F [Compound 6-2, (Z)-4,5-Difluoro-3-(2-fluoro-benzylidene)-1,3-dihydro-indol-2-one]",16.9 ± 1.67
18,"O=C1Nc2cc(Cl)ccc2/C1=C\c1ccccc1C(F)(F)F [Compound 1-9, (E)-6-Chloro-3-(2-trifluoromethyl-benzylidene)-1,3-dihydro-indol-2-one]",24.1 ± 5.29
19,"N#Cc1cccc(/C=C2/C(=O)Nc3ccc(F)cc32)c1 [Compound 4-15, (E) 3-(5-Fluoro-2-oxo-1,2-dihydro-indol-3-ylidenemethyl)-benzonitrile]",7.36 ± 1.08
